Test results reported in ChEMBL document CHEMBL5335821, “Antiviral Protein-Protein Interaction Inhibitors” (J Med Chem, 2024).
Where a SMILES comes first, the peptide text is derived from it.

How the values were obtained:
Ebolavirus [1] = experiment: Antiviral activity against pseudotyped Ebola virus infected in HeLa cells assessed as reduction in viral infection incubated for 48 hrs by firefly luciferase assay; type: functional, organism-based; conditions: Orthoebolavirus
Chikungunya virus [2] = experiment: Antiviral activity against CHIKV infected in Vero 76 cells assessed as reduction in cytopathic effect; type: functional, organism-based
[3] = molecular target: Spike glycoprotein/Angiotensin-converting enzyme 2 (Severe acute respiratory syndrome coronavirus 2, UniProt P0DTC2+Q9BYF1); experiment: Inhibition of SARS-CoV-2 spike protein RBD- human ACE2 interaction incubated for 1 hr by colorimetric ELISA assay
Hepatitis C virus [4] = experiment: Antiviral activity against HCV infected in human Huh-7 cells assessed as reduction in viral replication; type: functional, organism-based, Hepacivirus hominis
Ebolavirus [5] = experiment: Antiviral activity against Ebola virus infected in human HeLa cells assessed as reduction in viral cytopathic effect; type: functional, organism-based; conditions: Orthoebolavirus
Hepatitis C virus [6] = experiment: Antiviral activity against HCV infected in Huh-7 assessed as reduction in viral RNA replication at 0.5 nM relative to control; type: functional, Hepacivirus hominis; parameters: scale not given: the % may be the effect or the level left
Hepatitis C virus [7] = experiment: Antiviral activity against HCV infected in human Huh-7.5.1 cells assessed as reduction in viral infection incubated for 48 hrs; type: functional, organism-based, Hepacivirus hominis; conditions: Huh-7.5.1, 48 h
[8] = Inhibition of HCV RNA; type: functional, Hepacivirus hominis
SARS-CoV-2 = experiment: Antiviral activity against SARS-CoV-2; type: functional, organism-based, Severe acute respiratory syndrome coronavirus 2
Chikungunya virus [9] = experiment: Antiviral activity against CHIKV infected in HEK293T cells; type: functional, organism-based; conditions: HEK-293T
[10] = Inhibition of MERS-CoV Main protease; parameters: species or system Middle East respiratory syndrome-related coronavirus
[11] = molecular target: Replicase polyprotein 1ab (Severe acute respiratory syndrome-related coronavirus, UniProt P0C6X7); experiment: Inhibition of SARS-CoV-1 Main Protease
[12] = molecular target: Replicase polyprotein 1ab (Severe acute respiratory syndrome coronavirus 2, UniProt P0DTD1); experiment: Inhibition of SARS-CoV-2 main protease
dengue virus type 2 = experiment: Antiviral activity agaisnt DENV-2 strain New Guinea C infected with hamster BHK-21 cells assessed as reduction in viral growth; type: functional, organism-based
Hepatitis C virus [13] = experiment: Antiviral activity against HCV infected in Huh-7 assessed as inhibition of HCV RNA replication at 5 nM relative to control; type: functional, Hepacivirus hominis; parameters: scale not given: the % may be the effect or the level left
Hepatitis C virus [14] = experiment: Antiviral activity against HCV infected in human Huh7.5.1 cells assessed as decrease in viral infection; type: functional, organism-based, Hepacivirus hominis; conditions: Huh-7.5.1

Sequence of Spike glycoprotein/Angiotensin-converting enzyme 2 (Q9BYF1 18-805 limits assumed, other chains not shown): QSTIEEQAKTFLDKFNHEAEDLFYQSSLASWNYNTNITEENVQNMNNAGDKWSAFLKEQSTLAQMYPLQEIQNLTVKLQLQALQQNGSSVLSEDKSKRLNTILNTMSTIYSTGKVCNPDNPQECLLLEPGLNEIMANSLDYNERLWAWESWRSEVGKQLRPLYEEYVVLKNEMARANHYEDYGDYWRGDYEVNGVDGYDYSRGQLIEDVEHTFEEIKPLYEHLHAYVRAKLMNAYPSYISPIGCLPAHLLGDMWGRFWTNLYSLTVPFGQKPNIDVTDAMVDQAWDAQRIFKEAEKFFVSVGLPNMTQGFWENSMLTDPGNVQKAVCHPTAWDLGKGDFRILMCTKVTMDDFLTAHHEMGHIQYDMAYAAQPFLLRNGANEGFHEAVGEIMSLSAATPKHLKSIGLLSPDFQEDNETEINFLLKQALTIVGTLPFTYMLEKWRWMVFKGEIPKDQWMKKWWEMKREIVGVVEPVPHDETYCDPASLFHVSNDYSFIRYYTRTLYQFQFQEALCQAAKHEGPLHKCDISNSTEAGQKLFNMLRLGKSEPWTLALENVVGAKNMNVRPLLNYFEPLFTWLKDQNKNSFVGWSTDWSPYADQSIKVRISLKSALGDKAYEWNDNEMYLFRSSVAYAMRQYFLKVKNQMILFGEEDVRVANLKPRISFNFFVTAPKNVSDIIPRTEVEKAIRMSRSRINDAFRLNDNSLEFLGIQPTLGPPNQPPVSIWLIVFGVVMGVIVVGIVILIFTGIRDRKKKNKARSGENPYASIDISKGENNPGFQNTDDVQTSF

With FC(C1=Nc2ccccc2N=C(c2ccccc2)C1)C(F)(F)F (stereo not given) the IC50 (Ebolavirus [1]) was 10000 nM.
For CCOC(=O)c1c(CSc2ccccc2)n(C)c2cc(Br)c(O)c(CN(C)C)c12 [UMIFENOVIR], the IC50 (Chikungunya virus [2]) was < 20900 nM.
Work on CN1C(=O)c2ccccc2[S+]([O-])c2cc([N+](=O)[O-])ccc2S1(=O)=O (stereo not given) yielded an IC50 [3] of 670 nM.
For COc1c(NC(=O)C(=O)c2ccc(OCCN3CCOCC3)c3ccccc23)cc(C(C)(C)C)cc1NS(C)(=O)=O [ITX-5061 FREE BASE], the EC50 (Hepatitis C virus [4]) was 0.1 nM.
Work on COC(=O)c1ccc(COc2ccccc2CN2CCN(C(=O)CNC(=O)CC34CC5CC(CC(C5)C3)C4)CC2)cc1 yielded an IC50 (Ebolavirus [5]) of 130 nM.
CC[C@H](C)[C@H](NC(=O)[C@H](C)NC(=O)[C@H](Cc1c[nH]c2ccccc12)NC(=O)[C@H](CO)NC(=O)[C@H](C)N)C(=O)N[C@@H](CCCCN)C(=O)N[C@@H](Cc1c[nH]c2ccccc12)C(=O)N[C@@H](CCC(=O)O)C(=O)N[C@@H](Cc1ccc(O)cc1)C(=O)N[C@H](C(=O)N[C@H](C(=O)N[C@@H](CC(C)C)C(=O)N[C@@H](CC(C)C)C(=O)N[C@@H](Cc1ccccc1)C(=O)N[C@@H](CC(C)C)C(=O)N[C@@H](CC(C)C)C(=O)O)C(C)C)C(C)C (H-ASWAIKWEYVVLLFLL-OH) showed an Activity (Hepatitis C virus [6]) of 60% and an IC50 (Hepatitis C virus [7]) of 51000 nM.
COc1ccc2cc3[n+](cc2c1OC)CCc1cc2c(cc1-3)OCO2 [BERBERINE] gave an EC50 (Hepatitis C virus [4]) of 7870 nM.
With COc1cc(C[C@@]2(O)C(=O)OC[C@@H]2Cc2ccc(OC)c(OC)c2)ccc1O the IC50 [8] was 670 nM.
IVERMECTIN gave an EC50 (SARS-CoV-2) of 4110 nM.
For COc1cc(OC)c2c(c1)O[C@@]1(c3ccc(Br)cc3)[C@H](c3ccccc3)C[C@@H](O)[C@@]21O, the IC50 (Chikungunya virus [9]) was 22.4 nM.
In the case of C[C@H]1O[C@@H](O[C@H]2CC[C@@]3(C)[C@@H](CC[C@]4(C)[C@@H]3C=CC3=C5CC(C)(C)CC[C@]5(CO)[C@H](O)C[C@]34C)[C@]2(C)CO)[C@H](O)[C@@H](O[C@@H]2O[C@H](CO)[C@@H](O)[C@H](O)[C@H]2O)[C@H]1O, the EC50 (Hepatitis C virus [4]) is reported as 20700 nM.
Work on O=C(CC12CC3CC(CC(C3)C1)C2)NCC(=O)N1CCN(Cc2ccccc2)CC1 yielded an IC50 (Ebolavirus [5]) of 1600 nM.
Cc1cc2nc3s/c(=C/c4ccc(-c5cccc(C(=O)O)c5)o4)c(=O)n3c2cc1C gave an IC50 [10] of 75 nM, an IC50 [11] of 59 nM and an IC50 [12] of 55 nM.
Compound Clc1ccc(-c2ccc(-c3nc(NCc4cccnc4)nc4ccccc34)s2)cc1 has an EC50 (dengue virus type 2) of 68 nM.
Compound CSCC[C@H](NC(=O)[C@H](Cc1c[nH]c2ccccc12)NC(=O)[C@@H](NC(=O)[C@H](CS)NC(=O)CNC(=O)[C@H](Cc1ccccc1)NC(=O)[C@H](Cc1c[nH]c2ccccc12)NC(=O)[C@H](CO)NC(=O)CNC(=O)[C@@H](N)CCC(N)=O)[C@@H](C)O)C(=O)N[C@@H](CC(N)=O)C(=O)N[C@@H](CO)C(=O)N[C@H](C(=O)NCC(=O)N[C@@H](Cc1ccccc1)C(=O)O)[C@@H](C)O has an Activity (Hepatitis C virus [13]) of 50%.
Cc1ccc(C(=O)Nc2ccc(S(=O)(=O)O)c3cc(S(=O)(=O)O)cc(S(=O)(=O)O)c23)cc1NC(=O)c1cccc(NC(=O)Nc2cccc(C(=O)Nc3cc(C(=O)Nc4ccc(S(=O)(=O)O)c5cc(S(=O)(=O)O)cc(S(=O)(=O)O)c45)ccc3C)c2)c1 [SURAMIN] showed an IC50 (Chikungunya virus [2]) of 5680 nM.
CC(C)[C@H](NC(=O)[C@H](Cc1c[nH]c2ccccc12)NC(=O)[C@@H](NC(=O)[C@H](C)N)[C@@H](C)O)C(=O)N[C@@H](CS)C(=O)NCC(=O)N1CCC[C@H]1C(=O)N[C@@H](CS)C(=O)N[C@H](C(=O)O)[C@@H](C)O (H-ATWVCGPCT-OH) gave an IC50 (Hepatitis C virus [14]) of 5500 nM.
